RP-LC retention time data for 79 compounds are collected here from the METLIN SMRT retention time set (Domingo-Almenara et al. 2019).

This data set in a line: gradient 5% acetonitrile 3 min, to 50% in 2 min, to 85% in 15 min, held 3 min, 100 µL/min. Conditions: column: Zorbax Extend-C18 2.1 x 50 mm; eluents: water / acetonitrile, 0.1% formic acid. Summed up:
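A Zorbax Extend-C18 column (2.1 × 50 mm, 1.8 μm) run at 100 μL/min with water and acetonitrile, both containing 0.1% formic acid, separated mixtures of ~100 pure standards. The HPLC was coupled to a quadrupole time-of-flight mass spectrometer operated in positive and negative ionization mode, with dead and dwell volumes of 40 μL and 900 μL. Each retention time was taken from a computationally picked adduct peak that was then manually inspected.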
Consider `CCN(CC)c1ncc2c(n1)CCC(C(=O)NCc1ccc(F)cc1Cl)C2` (centres undefined), for which the RP-LC retention time was determined as 731 s. `CNC(=O)CN(C)C(=O)c1cc2c(s1)N(CC1CC1)CCCC2`: the RP-LC retention time came out at 818 s. With `Cc1ccc(S(=O)(=O)N2CCC(c3nc(C(=O)N4CCCC4)c(C)o3)CC2)cc1C` the figure was 747 s; with `O=C1[C@H]2CN(Cc3ccccc3Cl)C[C@H]2C(=O)N1CCN1CCc2ccccc2C1`, 661 s. In turn, `Cc1ccc(-n2nc3c(N4CCCC(C(=O)N5CCOCC5)C4)nnc(C)c3c2C)cc1` (centres undefined) showed an RP-LC retention time of 736 s. Take `CN(C)c1cc(-n2cnc(C(=O)NCc3ccccc3Cl)c2)ncn1`: the RP-LC retention time is 813 s. Turning to `Cc1ccc(C)c2sc(OC3CCN(C(=O)c4ccc(S(C)(=O)=O)cc4)CC3)nc12`, the RP-LC retention time was found to be 1000 s. With `CCOC(=O)c1cccc(NC(=O)C2CCCN(c3ncnc4c3nc3n4CCCCC3)C2)c1` (centres undefined) the figure was 876 s. In turn, `CCOc1ccccc1-c1noc(Cn2c(=O)n(-c3ccc(F)cc3)c(=O)c3sccc32)n1` gave an RP-LC retention time of 956 s. As for `Cc1cc([N+](=O)[O-])nn1CC(=O)NCc1cccs1`, the RP-LC retention time stood at 572 s.

The compound `Cc1ccc(-c2csc(NC(=O)c3coc4ccccc4c3=O)n2)o1` showed an RP-LC retention time of 1070 s. As for `Cc1cc(C)cc(Nc2nc(C)cc3nn(CC(=O)NCc4ccccc4)c(=O)n23)c1`, the RP-LC retention time amounted to 1080 s.

Compound `CSc1cccc(NC(=O)NC2CCN(c3ccc(F)cc3)C2=O)c1` (centres undefined) returned an RP-LC retention time of 824 s. In the case of `CCN1CCN(c2c(S(=O)(=O)c3ccc(C)c(C)c3)cnc3ccc(OC)cc23)CC1` it was 679 s; in that of `CSc1cccc(NC(=O)Cn2cnc3nc4c(cc3c2=O)CCCC4)c1`, 755 s.

The compound `O=S(=O)(Cc1ccccc1)N1CCC(c2noc(-c3cccnc3)n2)C1` (centres undefined) yielded an RP-LC retention time of 822 s. The compound `Cc1c(C(=O)NCC(C)C)c(C)n2cnn(CC(=O)NCCc3ccccc3)c(=O)c12` had an RP-LC retention time of 743 s. In the case of `CCN1C(=O)C2(CCN(C(=O)CC(C)C)CC2)c2ccccc21` it was 818 s; in that of `O=C(NCCCn1c(-c2ccncc2)nc2cccnc21)Nc1cccc(F)c1`, 651 s; in that of `Cc1ccccc1-c1noc(Cn2nc(-c3ccc4c(c3)OCO4)ccc2=O)n1`, 943 s. In the case of `CCC(=O)N1CCc2cc(C(=O)NCc3ccc4c(c3)OCO4)ccc21` it was 761 s. With `CN(C(=O)c1ccc(F)cc1C(F)(F)F)C1CCN(c2nnc(-c3ccnn3C)c3ccccc23)CC1` the figure was 850 s; with `CC1CCN(CCCNC(=O)c2nnc(-c3ccc(S(=O)(=O)N4CCOCC4)cc3)o2)CC1`, 608 s.

For the compound `COc1ccc(-c2noc(C3CC(=O)N(c4cc(C)ccc4C)C3)n2)cc1` (centres undefined), the RP-LC retention time came to 988 s. The compound `COCCC1CCN(C(=O)CN(C)C(=O)c2cnccn2)CC1` came in with an RP-LC retention time of 580 s. With `CC(C)(C)NC(=O)C1CCN(S(=O)(=O)c2cc(-c3noc(C4CCC4)n3)cs2)CC1` the figure was 1030 s; with `COc1ccc(-c2noc(C3CCCN3C(=O)c3ccco3)n2)cc1OC` (centres undefined), 780 s; with `Cc1ccc2c(Nc3ccc(F)c(C)c3)c(-c3nc(C)no3)cnc2n1`, 764 s. With `COc1ccc(CNS(=O)(=O)c2ccc3c(c2)CCCC(=O)N3)cc1` the figure was 699 s; with `COC(=O)C1=C(CN2CCN(C)CC2)NC(=O)NC1c1cc(C)ccc1C` (centres undefined), 614 s. In the case of `O=C(Cc1c[nH]c2ccccc12)Nc1cc(-c2ccccn2)no1` it was 754 s. `Cc1ccc(-c2cc3c(=O)n(Cc4nc(-c5ccccc5)no4)ncn3n2)c(C)c1` had an RP-LC retention time of 1200 s. With `COc1ccc(OC)c(CNC(=O)C2CCCN2S(=O)(=O)c2cc3c(cc2C)NC(=O)CO3)c1` (centres undefined) the figure was 730 s. Compound `O=C(Nc1ccc(-c2nnc3n2CCCC3)cc1)c1ccc2ccccc2n1` showed an RP-LC retention time of 773 s. In the case of `O=C(C1CCN(S(=O)(=O)c2ccc(-c3noc(CCC4CCCC4)n3)cc2)CC1)N1CCCC1` it was 1190 s. In the case of `Cc1nn(-c2ccccc2)c2c1N(CC(=O)NC1CCCC1)C(=O)CS2` it was 780 s. In the case of `CCc1ccccc1NS(=O)(=O)c1cc2n(c1)CCCNC2=O`, the RP-LC retention time turned out to be 663 s. In the case of `CCCC(=O)N1CCc2c([nH]c3ccccc23)C1c1ccc(F)cc1` (centres undefined) it was 698 s; in that of `CSc1cccc(NC(=O)CN2CCC3(CC2)N=C(c2cccc(F)c2)C(=O)N3)c1`, 685 s; in that of `COC(=O)C(C)Sc1ncnc2c1oc1ccccc12` (centres undefined), 906 s. With `Cc1ccc(-c2nc(-c3ccc4c(c3)ncn4CCN3CCOCC3)no2)c(C)c1` the figure was 698 s; with `Cc1ccc(C(=O)N2CCC3(CC2)N=C(c2ccccc2)NO3)s1`, 810 s; with `CCn1ccc2cc(S(=O)(=O)N3CCCC(C(=O)NCc4ccc(OC(C)C)cc4)C3)ccc21` (centres undefined), 1060 s. On to `CCc1ccc(CNC(=O)C2CCc3nc(N4CCOCC4)ncc3C2)cc1` (centres undefined), for which the RP-LC retention time is 802 s. In turn, `CCOC(=O)CSc1nnc(NC(=O)COc2ccccc2)s1` showed an RP-LC retention time of 798 s. For the compound `Cc1csc(-c2cc(S(=O)(=O)N3CCN(c4ncccn4)CC3)c(C)n2C)n1`, the RP-LC retention time was 958 s.

`O=C(CC1CCN(C(=O)c2ccc3oc(-c4ccccc4)nc3c2)CC1)N1CCCC1`: the RP-LC retention time is 782 s. In the case of `COc1ccc(C(=O)N2CCc3ccc(C(=O)Nc4ccc5c(c4)OCO5)cc32)cc1` it was 773 s; in that of `Cc1ccc(C(=O)N2CCC(Nc3ncnc4c3CCC4)C2)s1` (centres undefined), 585 s. With `Cc1ccn2c(NC(=O)c3ccc(Cl)cc3)c(-c3ccc(F)cc3)nc2c1` the figure was 693 s. With `CCCc1noc(-c2ccnc(-n3ncc(C(=O)NCC)c3C)c2)n1` the figure was 828 s; with `O=C(NCc1cccc(C(F)(F)F)c1)c1cn2ccccc2n1`, 748 s.

Consider `CN1C(=O)C(F)=C[C@]2(C)[C@H]3CC[C@]4(C)[C@@H](C(=O)NCc5nc6ncccc6[nH]5)CC[C@H]4[C@@H]3CC[C@@H]12`, for which the RP-LC retention time was found to be 719 s. For `Cc1cc(CS(=O)(=O)c2ccccc2)cc(OCc2ccc(CN3CCC[C@@H]3CO)cc2)c1`, the RP-LC retention time was 788 s. `O=C(NCCOc1ccc2c(c1)OCO2)c1ccccc1Cl` displayed an RP-LC retention time of 785 s. `O=C(NCC1CCCO1)c1cc(S(=O)(=O)N2CCCCCC2)ccc1Cl` (centres undefined): the RP-LC retention time came out at 842 s. `CCN1CCN(CCCNC(=O)CN2CCSc3ccccc32)CC1` had an RP-LC retention time of 580 s. The compound `Cc1[nH]c2ccc(-c3nnc(SC(C)C(=O)Nc4ccc5c(c4)OCCO5)o3)cc2c1C` (centres undefined) displayed an RP-LC retention time of 936 s.

The compound `O=C(c1ccc2c(c1)nnn2CCN1CCOCC1)N1CCN(c2ccccc2)CC1` returned an RP-LC retention time of 616 s. The compound `CCn1nc(CNC(=O)c2cncc(Br)c2)c2ccccc21` returned an RP-LC retention time of 820 s. In the case of `CN1C(=O)c2cc(C(=O)N3CCCC3)nn2CC1(C)C(=O)NCc1ccc(F)cc1` (centres undefined) it was 626 s.

Compound `Cc1nc(Nc2ccc(F)cn2)sc1C(=O)N1CCN(c2ccccc2)CC1` yielded an RP-LC retention time of 875 s. Take `Cn1cnc([N+](=O)[O-])c1Sc1n[nH]c(N)n1`: the RP-LC retention time was found to be 599 s.

In turn, `COc1ccc(-c2noc(-c3nc(C(C)C)no3)n2)cc1OC` had an RP-LC retention time of 1050 s. For the compound `CC(C)N1CCC(OCCCNC(=O)CN2CCCc3nc(C4CC4)ncc3C2=O)CC1`, the RP-LC retention time amounted to 576 s.

Compound `Cc1ccn2c(Nc3ccc4c(c3)OCCO4)c(-c3cccc(Cl)c3)nc2c1` returned an RP-LC retention time of 727 s.

`NC(=O)C1CCN(C(=O)CN2CCC(Cc3ccccc3)CC2)CC1` returned an RP-LC retention time of 591 s. Regarding `COc1ccccc1CCC(=O)N1CCn2cnnc2C1`, the RP-LC retention time came out at 594 s. In the case of `Cc1ccc(-c2nc3ncccn3c2Nc2cc(C)ccc2C)cc1` it was 825 s; in that of `COC(=O)C(C)Sc1ncnc2sc(C)c(C)c12` (centres undefined), 955 s; in that of `O=S(=O)(c1cc(-c2noc(C3CC3)n2)cs1)N1CCN(c2ccccn2)CC1`, 719 s. With `O=C(CCC1CCCC1)Nc1nc(-c2ccc(Cl)cc2)cs1` the figure was 1290 s; with `CCCNC(=O)C1CCN(c2ccc(SCC(=O)Nc3cccc(F)c3)nn2)CC1`, 645 s. With `COc1cc(C)c(Cl)cc1S(=O)(=O)Nc1ccc(-c2cn3ccc(C)nc3n2)cc1` the figure was 700 s; with `CSc1cccc2sc(NC(=O)C3CCN(S(C)(=O)=O)CC3)nc12`, 779 s.

The compound `O=C(COc1ccccc1)N1CCCC(OCc2nc(C3CC3)no2)C1` (centres undefined) yielded an RP-LC retention time of 610 s. With `COCCCNC(=O)N1CCCC1c1nc(-c2ccccc2C)no1` (centres undefined) the figure was 785 s; with `Cc1ccc(NC(=O)c2cn3c(n2)CCCC3)c(C)c1`, 644 s. `CCn1cc(CC(=O)N2CCC(N3CCCCC3)CC2)c2cccnc21` displayed an RP-LC retention time of 553 s.
